This test deals with T1, Thromboxane A2 receptor (Homo sapiens, UniProt P21731).
T1 sequence (P21731 whole entry): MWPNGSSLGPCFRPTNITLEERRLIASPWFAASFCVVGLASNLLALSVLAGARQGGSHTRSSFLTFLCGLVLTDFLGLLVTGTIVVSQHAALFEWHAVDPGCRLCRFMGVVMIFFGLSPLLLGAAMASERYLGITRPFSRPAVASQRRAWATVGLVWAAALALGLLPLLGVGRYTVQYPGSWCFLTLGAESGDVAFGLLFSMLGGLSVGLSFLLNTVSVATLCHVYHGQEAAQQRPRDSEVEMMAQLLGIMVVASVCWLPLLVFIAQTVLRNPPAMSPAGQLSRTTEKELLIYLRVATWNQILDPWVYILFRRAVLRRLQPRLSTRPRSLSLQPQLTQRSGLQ
The test can be described thus: Binding affinity of Thromboxane A2 (TXA2) receptor using [3H]-SQ 29,548 radioligand in washed human platelets.

Structures are written as SMILES.

One may read the Kd as the constant that tells how readily two partners part at equilibrium. `CC1(C)C2CC[C@H](Cc3cccc4ccc(=O)oc34)C1C2` (some centres not stated) gave a Kd of 138 nM. For `CC1(C)C2CC[C@@H](Cc3cccc4ccc(=O)oc34)C1C2` (some centres not stated) the value was 424 nM.

Source of the values: ChEMBL document CHEMBL1128779, “Synthesis of a fluorescent labeled thromboxane A2 receptor antagonist” (Bioorg Med Chem Lett, 1995).
